Test results taken from a melting point compilation (Tetko et al.; mined from patent text by program, amines drawn as free bases though some values may be those of a salt).

Row | Compound | melting point
1 | CC(=O)Nc1ccc(S(=O)(=O)Nc2nc(=O)n(C3CC3)cc2C)cc1 | 176 to 181 °C
2 | Nc1c(F)c(N2CCNCC2)cc2c1c(=O)c(C(=O)O)cn2C1COC1 | 244 to 246 °C
3 | CS(=O)(=O)N1CCC(C2c3ccccc3C=Cc3ccccc32)CC1 | 260 to 268 °C
4 | O=C1NC(=O)C(Cc2ccc(OC[C@@H]3CCCN3c3nc4ccccc4s3)cc2)S1 (stereo partly specified) | 95 °C
5 | CNC(=O)ON=C1OCCOC1(C)C | 144 to 146 °C
6 | CC(C)(C)NS(=O)(=O)c1ccc(N)cc1 | 127 °C
7 | COc1ccc(CSc2nnc(-c3ccc4occc4c3)o2)cc1F | 134 to 136 °C
8 | COc1c(N2CCC(N)C(C)C2)c(F)c(N)c2c(=O)c(C(=O)O)cn(C3CC3)c12 (stereo unspecified) | 260 to 262 °C
9 | CCC(=O)N1CCC(NC(=O)Nc2cccc(F)c2)CC1 | 158 to 164 °C
10 | N#Cc1ccc(-c2ccc(-c3cn4cc(C#N)ccc4n3)o2)cc1 | 298 to 300 °C
11 | Cc1ccc(C=CC(=O)C2CC2)cc1 | 75 to 76 °C
12 | CC(=O)Nc1ccc(C(=O)N2CCN(CCc3ccc(Cl)cc3)CC2)cc1 | 147 to 149 °C
13 | O=C1CNc2ncc(I)cc2N1Cc1ccc(C(F)(F)F)o1 | 189 to 191 °C
14 | ClC(=NNc1ccc(Cl)cc1)c1ccccc1 | 107 to 108 °C
15 | CCC/C=C/c1ccc(C#CC(C)(C)O)c(F)c1 | 62 °C
16 | Nc1ccccc1N(C=O)CCCCO | 77 to 79 °C
17 | COc1cc2cnnc(N3CCCC(CO)C3)c2cc1OC (stereo unspecified) | 162 to 165 °C
18 | N#Cc1oc2c(sc3ccccc32)c1O | 174 to 175 °C
19 | CC(C)NCc1cccc(Cn2ccc(OCc3ccc(F)cc3F)c(Br)c2=O)c1 | 109 to 110 °C
20 | N#CCc1nn2c(-c3cccc(C(F)(F)F)c3)ccnc2c1C#N | 180 to 181 °C
21 | CCC(Sc1cc2ccccc2n1C)(C(=O)OC)c1ccccc1 (stereo unspecified) | 90 to 91 °C
22 | Cc1nc(-n2cnn(CCOC(=O)NCc3ccc(F)cc3)c2=O)sc1C(=O)NCc1cccnc1 | 149 to 150 °C
23 | CC(C)(C)OC(=O)N[C@H](CC(=O)OCc1ccccc1)C(=O)N[C@H](CO)c1ccccc1 | 117 to 118 °C
24 | O=C(O)c1ccc(-c2ccc(-c3ccc(C(F)(F)F)cc3)o2)cc1 | 270 to 271 °C
25 | COc1nc(-c2ccccc2F)c2ccsc2n1 | 175 to 176 °C
26 | Cn1c2ccc(F)cc2c(=O)n2nc(-c3nnn[nH]3)cc12 | 350 to 360 °C
27 | Cn1nc2ccc(NCCCN3CCC(OC(c4ccccc4)c4ccccc4)CC3)nn2c1=O | 171 to 172 °C

Row | Compound | melting point
28 | O=C(Nc1ccc(F)cc1)NC1CCN(C(=O)c2cccnc2)CC1 | 118 to 122 °C
29 | CN1C(O)=C(C(=O)Nc2ccc(Br)cc2)c2cscc2S1(=O)=O | 138 to 140 °C
30 | CCOCn1c(C(F)(F)F)cc(C#N)c1-c1ccc(Cl)cc1 | 83 to 84.5 °C
31 | COC(=O)C=Cc1ccc(OCc2nc(-c3ccccc3)oc2C)c(C(F)(F)F)c1 | 148 to 149 °C
32 | COc1cc2c(I)cn(C)c2cc1OC | 80 to 90 °C
33 | O=C(NC1CCn2c(CCc3ccccc3)nc3cccc1c32)c1ccccn1 (stereo unspecified) | 173 °C
34 | Cc1ccc(S(=O)(=O)NCCC2CCC(CC(=O)O)CC2)cc1 (stereo unspecified) | 104 to 105 °C
35 | O=Cc1ccc(-c2cc(Br)ccn2)o1 | 105 to 106 °C
36 | NS(=O)(=O)c1ccc(-n2nc(C=NOCc3ccccc3)cc2-c2ccc(Cl)cc2)cc1 | 158 to 159 °C
37 | CCn1c2ccc3ccccc3c2c2cccc(C)c21 | 79 to 83 °C
38 | O=C(CO)c1ccc(F)c(F)c1Nc1ccc(I)cc1F | 128 °C
39 | C#CC1(Oc2ccc(F)cc2N)CCN(C(=O)Oc2ccccc2)CC1 | 125 to 127 °C
40 | O=c1[nH]cnc2nn(C3CCCCC3)cc12 | 287 to 289 °C
41 | COc1ccccc1NC(=O)Nc1nc(NCc2cccs2)nc(N(CCC(=O)O)Cc2cccc(C)c2)n1 | 89 to 95 °C
42 | CC(N)Cc1ccc(C(N)=O)s1 (racemic) | 91 to 92 °C
43 | CC1=C(c2ccc(O)cc2)C(=O)c2cc(O)ccc21 | 125 to 129 °C
44 | Cc1cccc2c1nc(-c1c(F)cccc1F)n2Cc1cccnc1 | 131 to 132 °C
45 | O=c1[nH]c(=O)n(CCO)c2ccccc12 | 274 °C
46 | NS(=O)(=O)c1ccc(-c2cc(-c3nc(-c4ccc(Cl)c(Cl)c4)cc(C(F)(F)F)n3)ccn2)s1 | 266 °C
47 | Cc1cccnc1C(CO)COc1ccc([N+](=O)[O-])cc1 (stereo unspecified) | 135 to 136 °C
48 | CCOC(=O)c1cn(CCO)c2cc(-n3cccc3)c(F)cc2c1=O | 237 to 239 °C
49 | CC(C)C(=O)C(C)(C)SN(C)C(=O)ON=C1SC(C)(C)C(=O)N1C | 112 to 114 °C
50 | CCOC(=O)C(=CNC1CC1)C(=O)c1c(F)cc(F)c(F)c1N(Cc1ccccc1)C(C)=O | 119 to 121 °C
51 | Cn1c(=O)c2[nH]c(C3(N)CCCC3)nc2n(C)c1=O | 288 to 290 °C
52 | c1ccc(COc2cccc(-n3cnnn3)c2)cc1 | 85 to 86 °C
53 | c1cn(CCCc2ccc(OCc3coc(-c4ccsc4)n3)cc2)cn1 | 102 to 103 °C

Next, values leading:

Row | melting point | Compound
54 | 166 to 167 °C | O=[N+]([O-])c1ccc(Cl)c2cc[nH]c12
55 | 83 to 84 °C | Fc1cccc(F)c1-c1nc(COc2ccc(Oc3ccc(C(F)(F)F)cc3)cc2)no1
56 | 120 to 122 °C | CCc1noc(-c2cn(-c3cccc(Oc4ccc(Cl)cc4)c3)cn2)n1
57 | 138 °C | Cc1cc(-n2cccn2)c2cccc(OCc3c(Cl)ccc(S(=O)(=O)N4CCC(CO)CC4)c3Cl)c2n1
58 | 151 °C | Cc1c(NC(=O)OCCCl)cc([N+](=O)[O-])c(N)c1C
59 | 224 to 228 °C | CC1(C)Oc2ccc(I)cc2[C@@H](N2Cc3ccccc3C2=O)[C@@H]1O (relative stereo)
60 | 92 to 94 °C | O=C(Nc1ccccc1)OC(C1CC1)C1CC1
61 | 61 to 62 °C | CCOC(=O)c1cnn(-c2ccc(C)cc2)n1
62 | 198 °C | Cc1ccc2c(c1)C=Cc1sc(C)nc1C2c1cn(CCN2CCCC2)c(=O)[nH]c1=S (stereo unspecified)
63 | 55 °C | Fc1cc(N2CCN(CCc3coc4ccc(F)cc34)CC2)c2ncccc2c1
64 | 163 °C | CC1(C)CS(=O)(=O)CC(C)(C)N1Cl
65 | 100 to 102 °C | Cc1sc(S(N)(=O)=S)cc1C(C)O (stereo unspecified)
66 | 147 °C | CC(C)(C)CC(C)(C)c1cc(O)c(Sc2ccccc2)c(Sc2nnnn2-c2ccccc2)c1O
67 | 68 to 69 °C | C[Si](C)(C)c1ccc(Cl)s1
68 | 296 to 299 °C | CCN1C(=O)C(C)(C)C(=O)N(C)c2cc(C(=O)O)ccc21
69 | 171 to 176 °C | Cc1oc2ccccc2c1C(=O)O
70 | 184 to 190 °C | O=C(NCC1(c2ccccc2)CCCCC1)Nc1ccc(I)cc1
71 | 120 to 122 °C | CSc1ccc(/C=C2/C(CCN(O)C(N)=O)=C(C)c3ccccc32)cc1
72 | 184 °C | O=C1c2cccc3cc4ccccc4c(c23)C(=O)N1CCCNCCCN1C(=O)c2cccc3cc4ccccc4c(c23)C1=O
73 | 236 to 238 °C | Nc1ncc(-c2ccc(F)c(Cl)c2)nc1C(=O)Nc1cccnc1
74 | 235 to 237 °C | NC(=O)C(=O)Nc1nc(-c2oncc2-c2c(F)cccc2Cl)cs1
75 | 224 to 225 °C | COc1ccc(C(=O)Nc2cc(-c3c(-c4ccc(F)c(C)c4)nc4ccc(N(C)C)nn34)ccn2)cc1
76 | 114 °C | O=C(c1ccc(S)cc1)c1cccc([N+](=O)[O-])c1
77 | 191 to 193 °C | CC1COC(=O)N1c1cc(-c2ncnc(Nc3cccc(Cl)c3)n2)ccn1 (stereo unspecified)

Row | melting point | Compound
78 | 129 to 130 °C | COc1ccc2[nH]cc(CC3=CCCN(CCCC(=NO)c4ccc(F)cc4)C3)c2c1
79 | 225 °C | Cc1cc(=O)[nH]nc1-c1ccc2nc(C3CC3)n(Cc3ccc(-c4ccccc4-c4nnn[nH]4)cc3)c2c1
80 | 191 to 196 °C | O=C(NC(c1ccccc1)c1ccccc1)[C@H]1Cc2c([nH]c3ccccc23)CN1
81 | 113 to 115 °C | O=C(O)c1ccccc1OC1CCOC1=O (stereo unspecified)
82 | 106 to 110 °C | OCCC1(c2ccccc2)CCNC1 (stereo unspecified)
83 | 146 to 149 °C | CNC(=O)CN(C)Cc1ccc(CCn2cnc3cc(-c4ccc(Cl)cc4)sc3c2=O)cc1
84 | 62 °C | N#CCC1CN(Cc2ccccc2)CCO1 (stereo unspecified)
85 | 241 to 242 °C | Cn1c(C(=O)O)cc(=O)c2oc3ccc(Cl)cc3c(=O)c21
86 | 122 to 125 °C | CCC(NC(=O)c1c(O)c(-c2ccccc2)nc2ccccc12)c1ccccc1 (single isomer, unassigned; (-))
87 | 117 to 118 °C | O=Cc1cc2c(s1)-c1ccccc1OC2C1=CCCC=C1 (stereo unspecified)
88 | 133 to 135 °C | COc1cc2oc(=O)c3c(c2cc1OC)CCN(CCN1CC2CCC1CC2)C3
89 | 175 °C | COC(=O)c1cscc1Nc1ccc(C(F)(F)F)cc1[N+](=O)[O-]
90 | 210 °C | CC1(C)CCc2c(N3CCOCC3)nc3sc4c(NCCCN5CCCC5=O)ncnc4c3c2C1
91 | 109 to 110 °C | Nc1c(OCCCl)cc(Cl)cc1[N+](=O)[O-]
92 | 86 to 88 °C | COC(=O)c1cc(N(C)C)cc(N(C)C)c1
93 | 160 to 162 °C | COc1ccc(-c2cc(F)c(F)cc2-c2ccc(S(C)(=O)=O)cc2)cc1C
94 | 140 to 142 °C | Cn1ccnc1Sc1ccc(Nc2c(C#N)cnc3cc(-c4ccc(CN5CCNCC5)cc4)ccc23)cc1Cl
95 | 184 to 186 °C | Cc1ccc2cc([N+](=O)[O-])c3ccc(C)nc3c2n1
96 | 224 to 226 °C | CC(=O)NC[C@H]1CN(c2ccc(C(=O)c3cnc4ccc(C#N)cn34)cc2)C(=O)O1
97 | 194 to 195 °C | CS(=O)(=O)N1CCN(S(=O)(=O)c2ccc(-c3cccs3)cc2)[C@@H](C(=O)NOC2CCCCO2)C1 (stereo partly specified)
98 | 249 to 250 °C | CC(C)(C)c1ccc(C(=O)Nc2cn3cc(Br)ccc3n2)cc1
99 | 143 to 144 °C | COC(=O)c1ccccc1CC(=O)Nc1cccc(/C=C/c2nc(C3CCC3)cs2)c1
100 | 73 to 75 °C | CC(C)(C)c1cc(NC(=O)Nc2ccc(Oc3cccc(NC(=O)OCc4ccccc4)c3)cc2)no1
101 | 219 to 222 °C | Cc1cccc(-c2c3c(cc4ccc(O)cc24)-c2ccc(O)cc2CO3)c1
